Experimental data as given in the kinase profiling compilation of Christmann-Franck et al. (2016).

How the values were obtained:
Test in all cases: radiometric filter-binding kinase assay
MST4 (human) = MST4 (human) (UniProt Q9P289)
BRSK2 (human) = BRSK2 (human) (UniProt Q8IWQ3)
MYLK (human) = MYLK (human) (UniProt Q15746)
SRC (human) = SRC (human) (UniProt P12931)
EPHA4 (human) = EPHA4 (human) (UniProt P54764); conditions: compound 1.0 µM
IKBKE (human) = IKBKE (human) (UniProt Q14164)
NEK6 (human) = NEK6 (human) (UniProt Q9HC98)
MAPK8 (human) = MAPK8 (human) (UniProt P45983)
DYRK2 (human) = DYRK2 (human) (UniProt Q92630)
STK16 (human) = STK16 (human) (UniProt O75716); conditions: compound 1.0 µM
AURKB (human) = AURKB (human) (UniProt Q96GD4)
DYRK3 (human) = DYRK3 (human) (UniProt O43781)
Sequence of DYRK3 (human) (O43781 whole entry, looked up): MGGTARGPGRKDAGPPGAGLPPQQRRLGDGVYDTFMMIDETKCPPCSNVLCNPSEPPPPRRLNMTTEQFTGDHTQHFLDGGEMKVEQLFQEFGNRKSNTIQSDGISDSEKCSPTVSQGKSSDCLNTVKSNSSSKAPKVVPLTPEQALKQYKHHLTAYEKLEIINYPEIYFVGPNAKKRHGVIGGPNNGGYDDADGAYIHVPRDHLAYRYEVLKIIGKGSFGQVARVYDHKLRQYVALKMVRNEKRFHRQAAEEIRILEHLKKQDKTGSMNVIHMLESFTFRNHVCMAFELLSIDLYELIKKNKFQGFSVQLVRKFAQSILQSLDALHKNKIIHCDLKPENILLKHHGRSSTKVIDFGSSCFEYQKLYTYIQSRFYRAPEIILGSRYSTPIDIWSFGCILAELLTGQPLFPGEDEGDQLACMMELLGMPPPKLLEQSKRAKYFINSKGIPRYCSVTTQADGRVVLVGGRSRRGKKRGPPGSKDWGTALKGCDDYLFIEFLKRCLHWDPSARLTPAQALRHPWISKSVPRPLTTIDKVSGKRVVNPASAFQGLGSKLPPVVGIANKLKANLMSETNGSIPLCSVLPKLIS

MAPK13 (human) = MAPK13 (human) (UniProt O15264); conditions: compound 1.0 µM
MAPKAPK2 (human) = MAPKAPK2 (human) (UniProt P49137)
Sequence of MAPKAPK2 (human) (P49137 whole entry, looked up): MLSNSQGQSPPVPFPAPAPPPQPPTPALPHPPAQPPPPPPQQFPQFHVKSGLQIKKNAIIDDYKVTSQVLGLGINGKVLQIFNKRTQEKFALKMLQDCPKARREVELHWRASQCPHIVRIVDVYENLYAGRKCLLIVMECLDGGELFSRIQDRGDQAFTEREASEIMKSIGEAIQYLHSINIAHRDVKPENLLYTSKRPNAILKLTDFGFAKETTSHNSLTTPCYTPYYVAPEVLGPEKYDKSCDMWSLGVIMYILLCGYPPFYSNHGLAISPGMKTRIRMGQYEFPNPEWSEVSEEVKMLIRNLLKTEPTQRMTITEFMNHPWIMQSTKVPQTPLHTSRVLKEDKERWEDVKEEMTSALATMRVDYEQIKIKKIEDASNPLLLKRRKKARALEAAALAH

[1] = system: AKT2 (human), P31751 [S474D]
IKBKB (human) = IKBKB (human) (UniProt O14920)
NTRK1 (human) = NTRK1 (human) (UniProt P04629); conditions: compound 1.0 µM
YES1 (human) = YES1 (human) (UniProt P07947)
EPHB2 (human) = EPHB2 (human) (UniProt P29323); conditions: compound 1.0 µM
MAPK1 (human) = MAPK1 (human) (UniProt P28482)
DAPK1 (human) = DAPK1 (human) (UniProt P53355); conditions: compound 1.0 µM
MARK2 (human) = MARK2 (human) (UniProt Q7KZI7); conditions: compound 1.0 µM
STK33 (human) = STK33 (human) (UniProt Q9BYT3); conditions: compound 1.0 µM
CaMK1 (human) = CaMK1 (human) (UniProt Q14012)
MAPK10 (human) = MAPK10 (human) (UniProt P53779); conditions: compound 1.0 µM
MAPKAPK3 (human) = MAPKAPK3 (human) (UniProt Q16644); conditions: compound 1.0 µM
IGF1R (human) = IGF1R (human) (UniProt P08069); conditions: compound 1.0 µM
MAPK15 (human) = MAPK15 (human) (UniProt Q8TD08)
Sequence of MAPK15 (human) (Q8TD08 whole entry, looked up): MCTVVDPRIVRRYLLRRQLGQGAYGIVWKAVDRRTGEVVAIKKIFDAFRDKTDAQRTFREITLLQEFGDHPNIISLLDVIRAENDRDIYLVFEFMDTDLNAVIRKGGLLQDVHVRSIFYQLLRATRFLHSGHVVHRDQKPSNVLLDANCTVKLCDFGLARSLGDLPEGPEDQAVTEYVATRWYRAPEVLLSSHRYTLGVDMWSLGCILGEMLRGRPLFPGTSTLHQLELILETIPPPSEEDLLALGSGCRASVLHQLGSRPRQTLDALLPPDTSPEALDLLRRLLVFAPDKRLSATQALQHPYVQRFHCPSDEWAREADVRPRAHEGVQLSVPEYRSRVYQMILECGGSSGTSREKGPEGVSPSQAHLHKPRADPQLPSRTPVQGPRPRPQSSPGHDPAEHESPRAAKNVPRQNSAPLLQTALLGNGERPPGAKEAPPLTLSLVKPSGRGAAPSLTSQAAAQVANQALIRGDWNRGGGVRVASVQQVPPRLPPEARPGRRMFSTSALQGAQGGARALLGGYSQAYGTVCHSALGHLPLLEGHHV

PLK1 (human) = PLK1 (human) (UniProt P53350)
ZAP70 (human) = ZAP70 (human) (UniProt P43403); conditions: compound 1.0 µM
MAP2K6 (human) = MAP2K6 (human) (UniProt P52564); conditions: compound 1.0 µM
INSRR (human) = INSRR (human) (UniProt P14616)
[2] = system: SGK1 (human), O00141 [S422D]
Sequence of SGK1 (human), O00141 [S422D] (O00141 whole entry S422D, looked up): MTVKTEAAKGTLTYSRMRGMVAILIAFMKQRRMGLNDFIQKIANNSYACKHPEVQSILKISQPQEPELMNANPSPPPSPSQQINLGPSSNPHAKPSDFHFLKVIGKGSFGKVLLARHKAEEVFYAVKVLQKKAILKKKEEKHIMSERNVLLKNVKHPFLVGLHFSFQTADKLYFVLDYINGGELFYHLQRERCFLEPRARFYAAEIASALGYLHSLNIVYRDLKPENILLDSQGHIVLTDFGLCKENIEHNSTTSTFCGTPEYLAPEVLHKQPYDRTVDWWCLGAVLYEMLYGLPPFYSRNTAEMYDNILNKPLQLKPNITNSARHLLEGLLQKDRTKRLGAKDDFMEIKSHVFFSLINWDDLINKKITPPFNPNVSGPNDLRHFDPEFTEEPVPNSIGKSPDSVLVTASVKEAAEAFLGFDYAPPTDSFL

MKNK2 (human) = MKNK2 (human) (UniProt Q9HBH9)
Sequence of MKNK2 (human) (Q9HBH9 whole entry, looked up): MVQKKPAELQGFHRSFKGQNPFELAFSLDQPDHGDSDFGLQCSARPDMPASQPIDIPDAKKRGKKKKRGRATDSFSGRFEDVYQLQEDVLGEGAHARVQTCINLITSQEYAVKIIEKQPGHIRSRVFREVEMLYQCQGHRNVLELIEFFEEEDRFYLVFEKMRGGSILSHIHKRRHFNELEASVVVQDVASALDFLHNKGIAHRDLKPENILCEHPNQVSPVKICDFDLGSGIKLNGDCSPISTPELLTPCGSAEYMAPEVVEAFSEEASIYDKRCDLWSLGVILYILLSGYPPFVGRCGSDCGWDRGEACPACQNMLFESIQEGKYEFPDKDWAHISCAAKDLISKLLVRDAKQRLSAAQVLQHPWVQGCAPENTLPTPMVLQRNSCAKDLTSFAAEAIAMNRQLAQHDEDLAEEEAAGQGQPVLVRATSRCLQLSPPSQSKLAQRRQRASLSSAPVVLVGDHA

PRKACA (human) = PRKACA (human) (UniProt P17612)
MARK4 (human) = MARK4 (human) (UniProt Q96L34); conditions: compound 1.0 µM
FLT1 (human) = FLT1 (human) (UniProt P17948); conditions: compound 1.0 µM
EPHA2 (human) = EPHA2 (human) (UniProt P29317)
PAK4 (human) = PAK4 (human) (UniProt O96013)
HIPK2 (human) = HIPK2 (human) (UniProt Q9H2X6)
RPS6KA5 KD1 KD2 (human) = RPS6KA5 KD1 KD2 (human) (UniProt O75582)

Sequence of MYLK (human) (Q15746 whole entry, looked up): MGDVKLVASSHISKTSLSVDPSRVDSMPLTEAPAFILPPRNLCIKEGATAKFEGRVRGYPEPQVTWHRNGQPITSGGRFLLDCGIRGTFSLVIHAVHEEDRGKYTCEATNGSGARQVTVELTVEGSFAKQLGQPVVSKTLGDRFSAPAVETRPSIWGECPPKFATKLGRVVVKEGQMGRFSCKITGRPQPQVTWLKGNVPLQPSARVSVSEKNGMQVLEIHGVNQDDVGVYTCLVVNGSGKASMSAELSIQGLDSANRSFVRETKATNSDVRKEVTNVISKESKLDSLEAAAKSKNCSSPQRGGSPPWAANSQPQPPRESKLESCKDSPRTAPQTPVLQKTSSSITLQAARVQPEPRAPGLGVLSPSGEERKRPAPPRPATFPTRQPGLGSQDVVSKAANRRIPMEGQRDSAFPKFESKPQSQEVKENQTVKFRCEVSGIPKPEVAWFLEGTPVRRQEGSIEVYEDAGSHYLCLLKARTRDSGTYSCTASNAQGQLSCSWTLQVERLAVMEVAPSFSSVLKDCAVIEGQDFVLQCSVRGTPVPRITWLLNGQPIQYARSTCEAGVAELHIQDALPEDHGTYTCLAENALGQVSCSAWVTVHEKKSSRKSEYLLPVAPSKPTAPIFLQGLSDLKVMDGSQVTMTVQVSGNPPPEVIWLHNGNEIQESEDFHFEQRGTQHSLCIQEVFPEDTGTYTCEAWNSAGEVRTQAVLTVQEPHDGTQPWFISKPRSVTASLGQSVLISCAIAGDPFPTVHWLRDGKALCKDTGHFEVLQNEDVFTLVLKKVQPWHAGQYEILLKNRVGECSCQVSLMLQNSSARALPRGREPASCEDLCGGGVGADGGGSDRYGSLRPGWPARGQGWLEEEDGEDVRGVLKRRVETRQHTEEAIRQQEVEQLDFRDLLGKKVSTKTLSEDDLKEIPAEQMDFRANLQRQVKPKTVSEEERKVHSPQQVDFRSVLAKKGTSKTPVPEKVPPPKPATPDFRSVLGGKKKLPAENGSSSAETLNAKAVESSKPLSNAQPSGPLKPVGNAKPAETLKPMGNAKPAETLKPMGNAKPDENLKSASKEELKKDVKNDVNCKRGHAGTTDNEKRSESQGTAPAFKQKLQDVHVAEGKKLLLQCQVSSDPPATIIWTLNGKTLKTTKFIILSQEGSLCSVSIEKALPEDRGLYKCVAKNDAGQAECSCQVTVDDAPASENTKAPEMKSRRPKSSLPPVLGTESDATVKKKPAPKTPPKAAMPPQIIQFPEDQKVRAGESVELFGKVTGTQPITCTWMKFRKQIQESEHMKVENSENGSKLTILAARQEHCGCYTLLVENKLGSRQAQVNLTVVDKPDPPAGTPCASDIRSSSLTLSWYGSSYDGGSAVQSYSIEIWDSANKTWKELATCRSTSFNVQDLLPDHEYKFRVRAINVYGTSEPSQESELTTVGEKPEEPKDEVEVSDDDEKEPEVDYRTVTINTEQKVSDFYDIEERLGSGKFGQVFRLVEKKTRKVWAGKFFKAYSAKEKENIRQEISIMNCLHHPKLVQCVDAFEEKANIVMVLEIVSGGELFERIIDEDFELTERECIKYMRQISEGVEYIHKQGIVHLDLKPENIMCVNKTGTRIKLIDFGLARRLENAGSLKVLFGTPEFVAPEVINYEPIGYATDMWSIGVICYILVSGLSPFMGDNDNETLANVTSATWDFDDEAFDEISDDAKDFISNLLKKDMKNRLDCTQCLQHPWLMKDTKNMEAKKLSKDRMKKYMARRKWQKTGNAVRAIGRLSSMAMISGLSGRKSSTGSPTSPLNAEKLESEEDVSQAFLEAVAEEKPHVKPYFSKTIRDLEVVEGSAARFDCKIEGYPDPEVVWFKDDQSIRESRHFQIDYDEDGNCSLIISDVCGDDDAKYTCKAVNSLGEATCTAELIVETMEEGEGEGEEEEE
Sequence of BRSK2 (human) (Q8IWQ3 whole entry, looked up): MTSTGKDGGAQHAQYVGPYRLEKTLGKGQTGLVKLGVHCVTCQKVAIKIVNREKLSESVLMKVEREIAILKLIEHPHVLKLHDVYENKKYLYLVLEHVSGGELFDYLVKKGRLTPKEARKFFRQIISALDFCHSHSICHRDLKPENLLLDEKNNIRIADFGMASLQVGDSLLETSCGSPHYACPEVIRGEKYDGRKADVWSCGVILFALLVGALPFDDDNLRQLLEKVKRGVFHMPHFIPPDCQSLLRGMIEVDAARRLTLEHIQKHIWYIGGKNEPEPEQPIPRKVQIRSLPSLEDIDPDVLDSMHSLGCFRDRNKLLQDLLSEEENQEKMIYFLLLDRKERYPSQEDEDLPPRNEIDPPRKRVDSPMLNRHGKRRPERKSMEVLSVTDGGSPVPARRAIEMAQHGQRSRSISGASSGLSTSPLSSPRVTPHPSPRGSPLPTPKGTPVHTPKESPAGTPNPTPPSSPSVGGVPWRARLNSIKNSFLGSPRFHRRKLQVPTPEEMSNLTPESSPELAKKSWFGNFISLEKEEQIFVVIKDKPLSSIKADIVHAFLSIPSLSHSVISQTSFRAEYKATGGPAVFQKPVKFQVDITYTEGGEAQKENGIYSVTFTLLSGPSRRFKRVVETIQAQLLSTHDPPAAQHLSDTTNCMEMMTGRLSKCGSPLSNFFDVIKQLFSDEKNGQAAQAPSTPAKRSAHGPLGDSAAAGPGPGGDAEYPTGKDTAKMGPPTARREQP

COc1ccc2c(c1)[nH]c1c(C)nccc12
residual activity (MST4 (human); compound 1.0 µM): 135% | residual activity (BRSK2 (human); compound 1.0 µM): 107% | residual activity (MYLK (human); compound 1.0 µM): 106% | residual activity (SRC (human); compound 1.0 µM): 109% | residual activity (EPHA4 (human)): 97% | residual activity (IKBKE (human); compound 1.0 µM): 83% | residual activity (NEK6 (human); compound 1.0 µM): 88% | residual activity (MAPK8 (human); compound 1.0 µM): 70% | residual activity (DYRK2 (human); compound 1.0 µM): 35% | residual activity (STK16 (human)): 92% | residual activity (AURKB (human); compound 1.0 µM): 94% | residual activity (DYRK3 (human); compound 1.0 µM): 31% | residual activity (MAPK13 (human)): 88% | residual activity (MAPKAPK2 (human); compound 1.0 µM): 87% | residual activity ([1]; compound 1.0 µM): 84% | residual activity (IKBKB (human); compound 1.0 µM): 81% | residual activity (NTRK1 (human)): 104% | residual activity (YES1 (human); compound 1.0 µM): 100% | residual activity (EPHB2 (human)): 136% | residual activity (MAPK1 (human); compound 1.0 µM): 100% | residual activity (DAPK1 (human)): 95% | residual activity (MARK2 (human)): 80% | residual activity (STK33 (human)): 97% | residual activity (CaMK1 (human); compound 1.0 µM): 88% | residual activity (MAPK10 (human)): 81% | residual activity (MAPKAPK3 (human)): 105% | residual activity (IGF1R (human)): 93% | residual activity (MAPK15 (human); compound 1.0 µM): 75% | residual activity (PLK1 (human); compound 1.0 µM): 96% | residual activity (ZAP70 (human)): 100% | residual activity (MAP2K6 (human)): 95% | residual activity (INSRR (human); compound 1.0 µM): 23% | residual activity ([2]; compound 1.0 µM): 78% | residual activity (MKNK2 (human); compound 1.0 µM): 84% | residual activity (PRKACA (human); compound 1.0 µM): 104% | residual activity (MARK4 (human)): 89% | residual activity (FLT1 (human)): 78% | residual activity (EPHA2 (human); compound 1.0 µM): 87% | residual activity (PAK4 (human); compound 1.0 µM): 67% | residual activity (HIPK2 (human); compound 1.0 µM): 68%

Oc1ccc2c(c1)C(O)c1cc(O)ccc1-2
residual activity (MST4 (human); compound 20.0 µM): 87% | residual activity (BRSK2 (human); compound 20.0 µM): 96% | residual activity (MYLK (human); compound 20.0 µM): 77% | residual activity (SRC (human); compound 20.0 µM): 70% | residual activity (IKBKE (human); compound 20.0 µM): 103% | residual activity (NEK6 (human); compound 20.0 µM): 78% | residual activity (MAPK8 (human); compound 20.0 µM): 97% | residual activity (DYRK2 (human); compound 20.0 µM): 69% | residual activity (AURKB (human); compound 20.0 µM): 75% | residual activity (DYRK3 (human); compound 20.0 µM): 15% | residual activity (MAPKAPK2 (human); compound 20.0 µM): 48% | residual activity ([1]; compound 20.0 µM): 80% | residual activity (RPS6KA5 KD1 KD2 (human); compound 20.0 µM): 85% | residual activity (IKBKB (human); compound 20.0 µM): 94% | residual activity (YES1 (human); compound 20.0 µM): 72% | residual activity (MAPK1 (human); compound 20.0 µM): 101% | residual activity (CaMK1 (human); compound 20.0 µM): 25% | residual activity (MAPK15 (human); compound 20.0 µM): 25% | residual activity (PLK1 (human); compound 20.0 µM): 66% | residual activity (INSRR (human); compound 20.0 µM): 47% | residual activity ([2]; compound 20.0 µM): 70% | residual activity (MKNK2 (human); compound 20.0 µM): 65% | residual activity (PRKACA (human); compound 20.0 µM): 76% | residual activity (EPHA2 (human); compound 20.0 µM): 86% | residual activity (PAK4 (human); compound 20.0 µM): 46% | residual activity (HIPK2 (human); compound 20.0 µM): 62%

Oc1ccc2c(c1)oc1c3ccccc3c(O)cc21
residual activity (MST4 (human); compound 1.0 µM): 86% | residual activity (BRSK2 (human); compound 1.0 µM): 66% | residual activity (MYLK (human); compound 1.0 µM): 46% | residual activity (SRC (human); compound 1.0 µM): 85% | residual activity (EPHA4 (human)): 100% | residual activity (IKBKE (human); compound 1.0 µM): 81% | residual activity (NEK6 (human); compound 1.0 µM): 77% | residual activity (MAPK8 (human); compound 1.0 µM): 81% | residual activity (DYRK2 (human); compound 1.0 µM): 5% | residual activity (STK16 (human)): 85% | residual activity (AURKB (human); compound 1.0 µM): 81% | residual activity (DYRK3 (human); compound 1.0 µM): 17% | residual activity (MAPK13 (human)): 95% | residual activity (MAPKAPK2 (human); compound 1.0 µM): 80% | residual activity ([1]; compound 1.0 µM): 61% | residual activity (RPS6KA5 KD1 KD2 (human); compound 1.0 µM): 105% | residual activity (IKBKB (human); compound 1.0 µM): 85% | residual activity (NTRK1 (human)): 107% | residual activity (YES1 (human); compound 1.0 µM): 95% | residual activity (EPHB2 (human)): 100% | residual activity (MAPK1 (human); compound 1.0 µM): 106% | residual activity (DAPK1 (human)): 31% | residual activity (MARK2 (human)): 87% | residual activity (STK33 (human)): 85% | residual activity (CaMK1 (human); compound 1.0 µM): 72% | residual activity (MAPK10 (human)): 105% | residual activity (MAPKAPK3 (human)): 84% | residual activity (IGF1R (human)): 78% | residual activity (MAPK15 (human); compound 1.0 µM): 37% | residual activity (PLK1 (human); compound 1.0 µM): 104% | residual activity (ZAP70 (human)): 90% | residual activity (MAP2K6 (human)): 92% | residual activity (INSRR (human); compound 1.0 µM): 24% | residual activity ([2]; compound 1.0 µM): 80% | residual activity (MKNK2 (human); compound 1.0 µM): 55% | residual activity (PRKACA (human); compound 1.0 µM): 101% | residual activity (MARK4 (human)): 99% | residual activity (FLT1 (human)): 40% | residual activity (EPHA2 (human); compound 1.0 µM): 84% | residual activity (PAK4 (human); compound 1.0 µM): 75% | residual activity (HIPK2 (human); compound 1.0 µM): 17%
